In US6479435B1, “Diaryl ethers and processes for their preparation and herbicidal and desiccant compositions containing them” (ISK Americas Incorporated, priority 1997, dated 2002):

Columns and labels:
Assay type in all cases: in vivo
[1] = system: Johnsongrass (Sorghum halepense, SORHA); assay: Pre-emerge greenhouse herbicide test, phytotoxicity rating; details: 14 days after application, rating scale 0-100
Method in brief: (§1)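 Visual 0–100 injury rating (100 = all plants dead) taken 14 days after treatment. Rates of 125–1000 g ai/ha in acetone, 187 l/ha, were sprayed onto soil one day post-sowing; pots were surface-watered to incorporate, then bottom-watered.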

[2] = system: barnyardgrass (Echinochloa crusgalli, ECHCG); assay: as above; details: 14 days after application, rating scale 0-100
Method in brief: as §1

[3] = system: common ragweed (Ambrosia artemisiifolia L., AMBEL); assay: as above; details: 14 days after application, rating scale 0-100
Method in brief: as §1

[4] = system: green foxtail (Setaria viridis, SETVI); assay: as above; details: 14 days after application, rating scale 0-100
Method in brief: as §1

[5] = system: ivyleaf morningglory (Ipomoea hederacea, IPOHE); assay: as above; details: 14 days after application, rating scale 0-100
Method in brief: as §1

[6] = system: lambsquarters (Chenopodium album, CHEAL); assay: as above; details: 14 days after application, rating scale 0-100
Method in brief: as §1

[7] = system: large crabgrass (Digitaria sanguinalis, DIGSA); assay: as above; details: 14 days after application, rating scale 0-100
Method in brief: as §1

[8] = system: redroot pigweed (Amaranthus retroflexus, AMARE); assay: as above; details: 14 days after application, rating scale 0-100
Method in brief: as §1

[9] = system: sicklepod (Cassia obtusifolia, CASOB); assay: as above; details: 14 days after application, rating scale 0-100
Method in brief: as §1

[10] = system: velvetleaf (Abutilon theophrasti, ABUTH); assay: as above; details: 14 days after application, rating scale 0-100
Method in brief: as §1

[11] = system: field corn (Zea mays L., var. Dekalb 535, CORN); assay: Pre-emerge greenhouse test, crop damage rating; details: 14 days after application, rating scale 0-100
Method in brief: as §1

[12] = system: upland rice (Oryza sp., var.Tebonnet, RICE); assay: Pre-emerge greenhouse test, crop damage rating; details: 14 days after application, rating scale 0-100
Method in brief: as §1

[13] = system: soybean (Glycine max L., var. Pella 86, SOY); assay: Pre-emerge greenhouse test, crop damage rating; set-up: key to SOY crop damage rating: 0 = no damage, 100 = complete death of all plants; details: 14 days after application, rating scale 0-100
Method in brief: as §1

[14] = system: common ragweed (Ambrosia artemisiifolia L., AMBEL); assay: Post-emerge greenhouse herbicide test, phytotoxicity rating; details: 14 days after application, scale 0-100
Method in brief: (§2)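 Scores use a 0 (no damage) to 100 (complete kill) scale, taken 14 days after a foliar spray. Acetone solutions with 0.25% v/v non-ionic surfactant were applied by track sprayer at 187 l/ha and 63-1000 g ai/ha to bottom-watered 2-3 leaf plants.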

[15] = system: Johnsongrass (Sorghum halepense, SORHA); assay: as above; details: 14 days after application, scale 0-100
Method in brief: as §2

[16] = system: barnyardgrass (Echinochloa crusgalli, ECHCG); assay: as above; details: 14 days after application, scale 0-100
Method in brief: as §2

[17] = system: green foxtail (Setaria viridis, SETVI); assay: as above; details: 14 days after application, scale 0-100
Method in brief: as §2

[18] = system: ivyleaf morningglory (Ipomoea hederacea, IPOHE); assay: as above; details: 14 days after application, scale 0-100
Method in brief: as §2

[19] = system: lambsquarters (Chenopodium album, CHEAL); assay: as above; details: 14 days after application, scale 0-100
Method in brief: as §2

[20] = system: large crabgrass (Digitaria sanguinalis, DIGSA); assay: as above; details: 14 days after application, scale 0-100
Method in brief: as §2

[21] = system: redroot pigweed (Amaranthus retroflexus, AMARE); assay: as above; details: 14 days after application, scale 0-100
Method in brief: as §2

[22] = system: sicklepod (Cassia obtusifolia, CASOB); assay: as above; details: 14 days after application, scale 0-100
Method in brief: as §2

[23] = system: velvetleaf (Abutilon theophrasti, ABUTH); assay: as above; details: 14 days after application, scale 0-100
Method in brief: as §2

[24] = system: field corn (Zea mays L., var. Dekalb 535, CORN); assay: Post-emerge greenhouse test, crop damage rating; details: 14 days after application, scale 0-100
Method in brief: as §2

[25] = system: upland rice (Oryza sp., var.Tebonnet, RICE); assay: Post-emerge greenhouse test, crop damage rating; details: 14 days after application, scale 0-100
Method in brief: as §2

[26] = system: soybean (Glycine max L., var. Pella 86, SOY); assay: Post-emerge greenhouse test, crop damage rating; set-up: key to crop damage rating SOY: 0-100 scale: 0 = no damage, 100 = complete death of all plants; details: 14 days after application, scale 0-100
Method in brief: as §2

O=c1n(-c2cc(Oc3ncccc3[N+](=O)[O-])c(Cl)cc2F)c(=S)n2n1CCCC2 [Compound 8-19]
70: phytotoxicity rating CASOB ([22]; rate 63 g ai/ha)
50: ECHCG phytotoxicity rating ([2]; Rate 125 g al/ha) | AMBEL phytotoxicity rating ([3]; Rate 125 g al/ha) | RICE crop damage rating ([12]; Rate 125 g al/ha) | phytotoxicity rating SORHA ([15]; rate 63 g ai/ha) | phytotoxicity rating SORHA ([15]; rate 500 g ai/ha) | phytotoxicity rating ECHCG ([16]; rate 63 g ai/ha) | phytotoxicity rating ECHCG ([16]; rate 500 g ai/ha) | crop damage rating SOY ([26]; rate 500 g ai/ha)
90: IPOHE phytotoxicity rating ([5]; Rate 500 g al/ha) | phytotoxicity rating AMBEL ([14]; rate 63 g ai/ha) | phytotoxicity rating AMBEL ([14]; rate 500 g ai/ha) | phytotoxicity rating SETVI ([17]; rate 500 g ai/ha) | phytotoxicity rating CASOB ([22]; rate 500 g ai/ha)
30: DIGSA phytotoxicity rating ([7]; Rate 125 g al/ha) | CORN crop damage rating ([11]; Rate 500 g al/ha) | phytotoxicity rating DIGSA ([20]; rate 63 g ai/ha) | phytotoxicity rating DIGSA ([20]; rate 500 g ai/ha) | crop damage rating CORN ([24]; rate 63 g ai/ha) | crop damage rating CORN ([24]; rate 500 g ai/ha)
80: SORHA phytotoxicity rating ([1]; Rate 125 g al/ha) | RICE crop damage rating ([12]; Rate 500 g al/ha)
40: IPOHE phytotoxicity rating ([5]; Rate 125 g al/ha) | crop damage rating RICE ([25]; rate 63 g ai/ha)
0: SOY crop damage rating ([13]; Rate 500 g al/ha)
95: SORHA phytotoxicity rating ([1]; Rate 500 g al/ha) | ECHCG phytotoxicity rating ([2]; Rate 500 g al/ha)
100: AMBEL phytotoxicity rating ([3]; Rate 500 g al/ha) | SETVI phytotoxicity rating ([4]; Rate 125 g al/ha) | SETVI phytotoxicity rating ([4]; Rate 500 g al/ha) | CHEAL phytotoxicity rating ([6]; Rate 125 g al/ha) | CHEAL phytotoxicity rating ([6]; Rate 500 g al/ha) | DIGSA phytotoxicity rating ([7]; Rate 500 g al/ha) | AMARE phytotoxicity rating ([8]; Rate 125 g al/ha) | AMARE phytotoxicity rating ([8]; Rate 500 g al/ha) | CASOB phytotoxicity rating ([9]; Rate 500 g al/ha) | ABUTH phytotoxicity rating ([10]; Rate 125 g al/ha) | ABUTH phytotoxicity rating ([10]; Rate 500 g al/ha) | phytotoxicity rating IPOHE ([18]; rate 63 g ai/ha) | phytotoxicity rating IPOHE ([18]; rate 500 g ai/ha) | phytotoxicity rating CHEAL ([19]; rate 63 g ai/ha) | phytotoxicity rating CHEAL ([19]; rate 500 g ai/ha) | phytotoxicity rating AMARE ([21]; rate 63 g ai/ha) | phytotoxicity rating AMARE ([21]; rate 500 g ai/ha) | phytotoxicity rating ABUTH ([23]; rate 63 g ai/ha) | phytotoxicity rating ABUTH ([23]; rate 500 g ai/ha)
65: crop damage rating SOY ([26]; rate 63 g ai/ha)
15: CORN crop damage rating ([11]; Rate 125 g al/ha)
20: CASOB phytotoxicity rating ([9]; Rate 125 g al/ha) | SOY crop damage rating ([13]; Rate 125 g al/ha)
60: phytotoxicity rating SETVI ([17]; rate 63 g ai/ha) | crop damage rating RICE ([25]; rate 500 g ai/ha)
